From US6716833B2, “Acetylenic α-amino acid-based sulfonamide hydroxamic acid tace inhibitors” (priority 1999, dated 2004) come the findings set out here.

Format in all cases: biochemical
Assay [1] has as its target T1, MMP-1 (Homo sapiens, UniProt P03956).
T1 sequence (P03956 100-469): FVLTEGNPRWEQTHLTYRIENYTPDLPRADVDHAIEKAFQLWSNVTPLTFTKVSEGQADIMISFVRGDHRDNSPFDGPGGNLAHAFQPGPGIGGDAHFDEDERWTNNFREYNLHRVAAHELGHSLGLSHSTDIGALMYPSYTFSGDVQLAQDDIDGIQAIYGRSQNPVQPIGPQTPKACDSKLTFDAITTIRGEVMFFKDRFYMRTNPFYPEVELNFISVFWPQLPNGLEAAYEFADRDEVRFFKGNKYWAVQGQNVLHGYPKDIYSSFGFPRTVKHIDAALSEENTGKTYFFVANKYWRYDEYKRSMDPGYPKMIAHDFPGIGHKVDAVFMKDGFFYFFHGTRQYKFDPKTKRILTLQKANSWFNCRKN
Briefly: MMP-1 inhibition (thiopeptide or fluorescent peptide substrate). Particulars: read-out: MMP-1 IC50.

For assay [2], the target named is MMP-13 (Homo sapiens, UniProt P45452). In words: MMP-13 inhibition (thiopeptide or fluorescent peptide substrate). To be noted: read-out: MMP-13 IC50.
The target of assay [3] is TNF-α converting enzyme (TACE) (Homo sapiens, UniProt P78536). Briefly: TACE inhibition (fluorescent peptidyl substrate). To be noted: read-out: TACE IC50.
TNF-α converting enzyme (TACE), sequence (P78536 215-824, species assumed): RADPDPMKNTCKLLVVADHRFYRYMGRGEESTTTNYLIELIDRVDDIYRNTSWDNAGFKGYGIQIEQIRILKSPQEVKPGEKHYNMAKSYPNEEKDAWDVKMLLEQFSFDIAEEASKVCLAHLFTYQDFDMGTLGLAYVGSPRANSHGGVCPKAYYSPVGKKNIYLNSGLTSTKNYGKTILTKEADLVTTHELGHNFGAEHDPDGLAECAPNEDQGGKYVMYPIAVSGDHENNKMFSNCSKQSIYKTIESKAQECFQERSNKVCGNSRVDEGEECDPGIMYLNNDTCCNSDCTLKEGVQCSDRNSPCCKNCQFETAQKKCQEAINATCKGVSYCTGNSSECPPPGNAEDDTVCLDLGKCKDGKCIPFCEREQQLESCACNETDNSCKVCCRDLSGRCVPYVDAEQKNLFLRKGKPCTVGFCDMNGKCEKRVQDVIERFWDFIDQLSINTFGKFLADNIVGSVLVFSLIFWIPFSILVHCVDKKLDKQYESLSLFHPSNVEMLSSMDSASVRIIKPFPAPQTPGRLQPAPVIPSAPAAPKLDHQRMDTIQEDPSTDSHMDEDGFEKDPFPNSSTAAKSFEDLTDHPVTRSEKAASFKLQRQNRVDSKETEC
Assay [4] has as its target MMP-9 (Homo sapiens, UniProt P14780). In words: MMP-9 inhibition (thiopeptide or fluorescent peptide substrate). To be noted: read-out: MMP-9 IC50.

Where a name gives a salt, the structure may show the parent alone.

As a reminder, the IC50 is the concentration needed to halve the response being measured.

MMP-9, sequence (P14780 94-707): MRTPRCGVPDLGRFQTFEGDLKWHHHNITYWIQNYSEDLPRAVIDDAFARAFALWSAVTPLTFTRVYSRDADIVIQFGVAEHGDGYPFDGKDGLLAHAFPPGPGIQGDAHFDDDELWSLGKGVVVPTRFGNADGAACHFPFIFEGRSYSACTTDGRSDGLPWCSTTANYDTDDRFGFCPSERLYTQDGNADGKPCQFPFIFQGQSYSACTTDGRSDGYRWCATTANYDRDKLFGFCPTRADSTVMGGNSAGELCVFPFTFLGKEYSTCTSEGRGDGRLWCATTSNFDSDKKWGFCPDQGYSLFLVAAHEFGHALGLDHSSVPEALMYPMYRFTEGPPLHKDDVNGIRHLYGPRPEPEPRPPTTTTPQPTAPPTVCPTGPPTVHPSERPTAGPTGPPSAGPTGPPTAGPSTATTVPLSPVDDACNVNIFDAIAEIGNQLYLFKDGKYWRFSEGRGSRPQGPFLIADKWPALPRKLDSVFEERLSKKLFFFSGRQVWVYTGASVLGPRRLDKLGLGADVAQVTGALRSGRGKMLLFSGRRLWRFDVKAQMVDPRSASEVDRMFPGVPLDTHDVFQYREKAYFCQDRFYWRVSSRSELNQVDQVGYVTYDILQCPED

For the compound `CC#CCOc1ccc(S(=O)(=O)N(CCN2CCOCC2)C(C(=O)NO)C(C)C)cc1` (stereo not drawn) [Example 123, 2-[[[4-(2-Butynyloxy)phenyl]sulfonyl][2-(4-morpholinyl)ethyl]amino]-N-hydroxy-3-methylbutanamide], the IC50 in assay [1] stood at 244 nM; in assay [2], 89 nM; in assay [3], 102 nM; in assay [4] it was 628 nM.
With `CC#CCOc1ccc(S(=O)(=O)N(CCN2CCOCC2)CC(=O)NO)cc1` [Example 124, 2-[{[4-(but-2-ynyloxy)Phenyl]sulfonyl}(2-morpholin-4-ylethyl)amino]-N-hydroxyacetamide Hydrochloride], the IC50 was found to be 1770 nM in assay [1], 54 nM in assay [2], 13 nM in assay [3] and 211 nM in assay [4].
For the compound `CC#CCOc1ccc(S(=O)(=O)N(CC#CCN2CCN(C)CC2)C(C(=O)NO)C(C)C)cc1` (stereo not drawn) [Example 125, 2-{{[4-(2-Butynyloxy)phenyl]sulfonyl}[4-(4-methyl-1-piperazinyl)-2-butynyl]amino}-N-hydroxy-3-methylbutanamide], the half-inhibitory concentration (IC50) in assay [1] came out at 505 nM; in assay [2], 151 nM; in assay [3], 108 nM; in assay [4] it was 846 nM.
Take `CC#CCOc1ccc(S(=O)(=O)N(CC#CCNC)C(C(=O)NO)C(C)C)cc1` (stereo not drawn) [Example 127, 2-{{[4-(2-Butynyloxy)phenyl]sulfonyl}[4-(methylamino)-2-butynyl]amino}-N-hydroxy-3-methylbutanamide]: the IC50 turned out to be 187 nM in assay [1], 37 nM in assay [2], 104 nM in assay [3] and 53 nM in assay [4].
Take `CC#CCOc1ccc(S(=O)(=O)N(C)[C@@H](C(=O)NO)C2CCC(N(CC)CC)CC2)cc1` (stereo partly drawn) [Example 128, ((2R)-{[4-(2-Butynyloxy)phenyl]sulfonyl}(methyl)amino)[(4-diethylamino)cyclohexyl]-N-hydroxyethamide]: the half-inhibitory concentration (IC50) was 2370 nM in assay [1], 212 nM in assay [2], 376 nM in assay [3] and 184 nM in assay [4].
In the case of `CC#CCOc1ccc(S(=O)(=O)N(C)CC(=O)NO)cn1` [Example 131, 2-[(6-but-2-ynyloxy-Pyridine-3-sulfonyl)-methyl-amino]-N-hydroxy-acetamide], the IC50 is roughly 10000 nM in assay [1], 428 nM in assay [2], 29 nM in assay [3] and 402 nM in assay [4].
In the same order, the values of `CC#CCOc1ccc(S(=O)(=O)N(CC#CCN2CCN(C)CC2)C(C)C(=O)NO)cc1` (stereo not drawn) [Example 135] are 921 nM, 66 nM, 21 nM and 142 nM.
With `CC#CCOc1ccc(S(=O)(=O)N(C)C(C(=O)NO)C(C)(C)SCCN2CCOCC2)cc1` (stereo not drawn) [Example 140, 2-({[4-(2-Butynyloxy)phenyl]sulfonyl)(methyl)amino]-N-hydroxy-3 Methyl-3-[(2(4-morpholinylethyl)sulfanyl]-butanamide Hydrochloride], the IC50 in assay [1] is 45 nM; in assay [2], 9.2 nM; in assay [3], 86 nM; in assay [4] it was 103 nM.
For `CC#CCOc1ccc(S(=O)(=O)N(C)C(C(=O)NO)C(C)(C)SCCn2ccnc2)cc1` (stereo not drawn) [Example 144, 2-({[4-(2-Butynyloxy)phenyl]sulfonyl)(methyl)amino]-N-hydroxy-3 Methyl-3-{[2-(1H-imidazol-1-yl)ethyl]sulfanyl}butanamide], the half-maximal inhibitory concentration (IC50) in assay [1] came to 16 nM; in assay [2], 5.9 nM; in assay [3], 60 nM; in assay [4] it was 26 nM.
As to `CC#CCOc1ccc(S(=O)(=O)N(C)C(C(=O)NO)C(C)(C)SCCC)cc1` (stereo not drawn) [Example 151, 2-[(4-but-2-ynyloxy-Benenesulfonyl)-methyl-amino]-N-hydroxy-3-methyl-3-propylsulfanyl-butyramide], the IC50 came out at 24 nM in assay [1], 14 nM in assay [2], 31 nM in assay [3] and 31 nM in assay [4].
Turning to `CC#CCOc1ccc(S(=O)(=O)NC(C(=O)NO)c2ccc(O)cc2)cc1` (stereo not drawn) [Example 176, 2-({[4-(2-Butynyloxy)phenyl]sulfonyl}amino)-N-hydroxy-2-(4-hydroxyphenyl)acetamide], the 50% inhibitory concentration (IC50) in assay [1] is roughly 10000 nM; in assay [2] it was 103 nM; in assay [3], 4 nM; in assay [4] it was 898 nM.
Turning to `C#CCOc1ccc(C(NS(=O)(=O)c2ccc(OCC#CC)cc2)C(=O)NO)cc1` (stereo not drawn) [Example 177, 2-({[4-(2-Butynyloxy)phenyl]sulfonyl}amino)-N-hydroxy-2-[4(2-propynyloxy)phenyl]acetamide], the concentration for half-maximal inhibition (IC50) in assay [1] was less than 10000 nM; in assay [2] it was 57 nM; in assay [3], 4.8 nM; in assay [4], 310 nM.
Regarding `CC#CCOc1ccc(S(=O)(=O)N(C)C(C(=O)NO)c2ccc(OC)cc2)cc1` (stereo not drawn) [Example 178, 2-[{[4-(2-Butynyloxy)phenyl]sulfonyl}(methyl)amino]-N-hydroxy-2-(4-methoxyphenyl)acetamide], the IC50 in assay [1] stood at 482 nM; in assay [2], 14 nM; in assay [3], 23 nM; in assay [4] it was 43 nM.
In the case of `CC#CCOc1ccc(S(=O)(=O)N(C)C(C(=O)NO)c2ccc(OCCN3CCOCC3)cc2)cc1` (stereo not drawn) [Example 179, 2-[{[4-(2-Butynyloxy)phenyl]sulfonyl}(methyl)amino]-N-hydroxy-2-{4-[2-(4-morpholinyl)ethoxy]phenyl}acetamide], the half-inhibitory concentration (IC50) in assay [1] worked out at 546 nM; in assay [2], 11 nM; in assay [3] it was 52 nM; in assay [4], 29 nM.
In the case of `CC#CCOc1ccc(S(=O)(=O)N(C)C(C(=O)NO)c2ccc(OCCNC(=O)OC(C)(C)C)cc2)cc1` (stereo not drawn) [Example 180, tert-Butyl 2-(4-[1-[{[4-(2-Butynyloxy)phenyl]sulfonyl}(methyl)amino]-2-(hydroxyamino)-2-oxoethyl]phenoxy}ethylcarbamate], the IC50 in assay [1] came out at 599 nM; in assay [2] it was 9.3 nM; in assay [3] it was 265 nM; in assay [4], 34 nM.
The like results for `CC#CCOc1ccc(S(=O)(=O)N(C)C(C(=O)NO)c2ccc(OCCN)cc2)cc1` (stereo not drawn) [Example 181, 2-[4-(2-Aminoethoxy)phenyl]-2-[{[4-(2-butynyloxy)phenyl]sulfonyl}(methyl)amino]-N-hydroxyacetamide] were, in that order, 645 nM, 24 nM, 16 nM and 26 nM.
As to `CC#CCOc1ccc(S(=O)(=O)N(C)C(C(=O)NO)c2ccc(OCCN(C)C)cc2)cc1` (stereo not drawn) [Example 182, 2-[{[4-(2-Butynyloxy)phenyl]sulfonyl}(methyl)amino]-2-{4-[2-(dimethylamino)ethoxy]phenyl}-N-hydroxyacetamide], the half-inhibitory concentration (IC50) amounted to 487 nM in assay [1], 15 nM in assay [2], 16 nM in assay [3] and 22 nM in assay [4].
The like results for `CC#CCOc1ccc(S(=O)(=O)N(C)C(C(=O)NO)c2ccc(OCCN3CCCC3)cc2)cc1` (stereo not drawn) [Example 183, 2-[{[4-(2-Butynyloxy)phenyl]sulfonyl}(methyl)amino]-N-hydroxy-2-{4-[2-(1-pyrrolidinyl)ethoxy]phenyl}acetamide] were, in that order, 497 nM, 42 nM, 40 nM and 55 nM.
